Here are results for 30 compounds from patent US20220388964A1 (HiberCell, Inc., priority 2019, published 2022).

As a reminder, the IC50 is the concentration needed to halve the response being measured.

Each structure is given as a SMILES string.

The target in the first assay is GCN2 (Homo sapiens, UniProt Q9P2K8). Description: TR-FRET biochemical assay for inhibition of GCN2 (Example 106, for Example 1-4BB). Conditions: Table 8. (In TR-FRET formats the signal depends on donor and acceptor labels being close together.)
GCN2, sequence (Q9P2K8 whole entry): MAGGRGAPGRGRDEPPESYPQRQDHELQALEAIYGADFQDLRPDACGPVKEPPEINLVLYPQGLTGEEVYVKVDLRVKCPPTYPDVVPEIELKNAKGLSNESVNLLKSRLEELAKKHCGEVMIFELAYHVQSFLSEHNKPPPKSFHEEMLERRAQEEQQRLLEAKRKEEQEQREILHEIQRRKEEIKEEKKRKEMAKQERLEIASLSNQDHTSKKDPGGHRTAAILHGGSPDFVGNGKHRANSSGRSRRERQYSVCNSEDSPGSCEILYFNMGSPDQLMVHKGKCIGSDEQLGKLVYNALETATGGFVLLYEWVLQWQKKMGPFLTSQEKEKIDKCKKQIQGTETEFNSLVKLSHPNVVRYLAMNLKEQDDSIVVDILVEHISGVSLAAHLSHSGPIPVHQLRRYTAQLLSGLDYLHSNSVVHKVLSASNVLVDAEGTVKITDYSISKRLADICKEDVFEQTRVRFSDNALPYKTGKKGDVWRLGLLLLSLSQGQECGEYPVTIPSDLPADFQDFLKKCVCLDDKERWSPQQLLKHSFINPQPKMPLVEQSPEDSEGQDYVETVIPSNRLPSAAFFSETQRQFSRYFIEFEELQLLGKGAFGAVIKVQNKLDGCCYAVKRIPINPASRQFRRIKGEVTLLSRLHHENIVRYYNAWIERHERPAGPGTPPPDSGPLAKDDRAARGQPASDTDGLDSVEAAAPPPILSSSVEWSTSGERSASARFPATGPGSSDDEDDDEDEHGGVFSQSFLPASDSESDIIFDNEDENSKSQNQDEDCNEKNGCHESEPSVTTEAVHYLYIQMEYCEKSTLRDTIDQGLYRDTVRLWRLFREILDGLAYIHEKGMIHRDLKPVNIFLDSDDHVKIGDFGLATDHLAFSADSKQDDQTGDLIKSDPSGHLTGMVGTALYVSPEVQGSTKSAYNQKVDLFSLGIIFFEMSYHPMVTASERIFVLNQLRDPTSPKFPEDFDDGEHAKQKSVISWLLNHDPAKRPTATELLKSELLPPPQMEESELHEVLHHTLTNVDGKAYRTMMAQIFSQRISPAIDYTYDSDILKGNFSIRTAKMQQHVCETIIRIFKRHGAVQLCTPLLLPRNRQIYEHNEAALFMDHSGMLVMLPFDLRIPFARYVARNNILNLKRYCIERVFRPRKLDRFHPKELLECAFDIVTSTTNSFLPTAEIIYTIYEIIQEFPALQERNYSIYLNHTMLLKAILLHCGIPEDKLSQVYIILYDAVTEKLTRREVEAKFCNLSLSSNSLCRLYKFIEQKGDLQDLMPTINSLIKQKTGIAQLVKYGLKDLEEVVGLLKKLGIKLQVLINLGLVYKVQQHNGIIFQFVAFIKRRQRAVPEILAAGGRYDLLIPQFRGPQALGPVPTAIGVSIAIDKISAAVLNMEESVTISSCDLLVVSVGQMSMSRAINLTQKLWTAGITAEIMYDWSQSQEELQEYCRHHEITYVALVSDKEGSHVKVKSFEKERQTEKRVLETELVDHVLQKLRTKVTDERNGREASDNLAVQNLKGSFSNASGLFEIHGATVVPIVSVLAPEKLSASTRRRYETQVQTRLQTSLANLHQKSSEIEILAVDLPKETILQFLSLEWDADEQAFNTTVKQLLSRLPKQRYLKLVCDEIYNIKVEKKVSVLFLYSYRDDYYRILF
For `COc1ncc(Cl)cc1S(=O)(=O)Nc1ccc(F)c(-c2ccc3c(C(N)=O)n[nH]c3c2F)c1F` [Example 2Z, 6-(3-((5-chloro-2-methoxy-pyridine)-3-sulfonamido)-2,6-difluorophenyl)-7-fluoro-1H-indazole-3-carboxamide], the IC50 is under 500 nM. The compound `O=c1cccc(S(=O)(=O)Nc2ccc(F)c(-c3ccc4c(-c5ncc[nH]5)n[nH]c4c3F)c2F)[nH]1` [Example 2AL, N-(2,4-difluoro-3-(7-fluoro-3-(1H-imidazol-2-yl)-1H-indazol-6-yl)phenyl)-6-oxo-1,6-dihydropyridine-2-sulfonamide] registered an IC50 of 2500 to 10000 nM. Compound `COC(=O)c1ccc(Cl)cc1S(=O)(=O)Nc1ccc(F)c(-c2ccc3c(-c4ncc[nH]4)n[nH]c3c2F)c1F` [Example 2BC, methyl 4-chloro-2-(N-(2,4-difluoro-3-(7-fluoro-3-(1H-imidazol-2-yl)-1H-indazol-6-yl)phenyl)sulfamoyl)benzoate] had an IC50 of under 500 nM. In the case of `O=S(=O)(Nc1ccc(F)c(-c2ccc3c(-c4ncc[nH]4)n[nH]c3c2F)c1F)c1cccnc1Cl` [Example 2BM, 2-chloro-N-(2,4-difluoro-3-(7-fluoro-3-(1H-imidazol-2-yl)-1H-indazol-6-yl)phenyl)-pyridine-3-sulfonamide], the IC50 was under 500 nM. In the case of `O=S(=O)(Nc1ccc(F)c(-c2ccc3c(-c4ncc[nH]4)n[nH]c3c2F)c1F)c1cc(Cl)ccc1CO` [Example 2BW, 5-chloro-N-(2,4-difluoro-3-(7-fluoro-3-(1H-imidazol-2-yl)-1H-indazol-6-yl)phenyl)-2-(hydroxyl-methyl)benzene-sulfonamide], the IC50 was under 500 nM. Consider `O=S(=O)(Nc1ccc(F)c(-c2ccc3c(-c4ncc[nH]4)n[nH]c3c2F)c1F)c1cccc(Cl)c1Cl` [Example 2BL, 2,3-dichloro-N-(2,4-difluoro-3-(7-fluoro-3-(1H-imidazol-2-yl)-1H-indazol-6-yl)phenyl)-benzenesulfonamide], for which the IC50 is under 500 nM. `COc1ncc(Cl)cc1S(=O)(=O)Nc1cccc(-c2ccc3c(-c4ncc[nH]4)n[nH]c3c2F)c1C` [Example 2P, 5-chloro-N-(3-(7-fluoro-3-(1H-imidazol-2-yl)-1H-indazol-6-yl)-2-methylphenyl)-2-methoxypyridine-3-sulfonamide]: the 50% inhibitory concentration (IC50) is under 500 nM.

`O=S(=O)(Nc1ccc(F)c(-c2ccc3c(-c4ncc[nH]4)n[nH]c3c2F)c1F)c1cc(Cl)cc(CO)c1Cl` [Example 2AF, 2,5-dichloro-N-(2,4-difluoro-3-(7-fluoro-3-(1H-imidazol-2-yl)-1H-indazol-6-yl)-phenyl)-3-(hydroxyl-methyl)benzenesulfonamide]: the IC50 is under 500 nM. The same measure, in the same setting: as for `Cc1cccc(F)c1S(=O)(=O)Nc1ccc(F)c(-c2ccc3c(-c4ncc[nH]4)n[nH]c3c2F)c1F` [Example 2AT, N-(2,4-difluoro-3-(7-fluoro-3-(1H-imidazol-2-yl)-1H-indazol-6-yl)phenyl)-2-fluoro-6-methylbenzene-sulfonamide], the figure is under 500 nM. Consider `O=S(=O)(Nc1ccc(F)c(-c2ccc3c(-c4ncc[nH]4)n[nH]c3c2F)c1F)c1ccc(F)c(F)c1` [Example 2BO, N-(2,4-difluoro-3-(7-fluoro-3-(1H-imidazol-2-yl)-1H-indazol-6-yl)phenyl)-3,4-difluorobenzenesulfonamide], for which the 50% inhibitory concentration (IC50) lay in the range of 500 to 2500 nM. `Cc1ncc(Cl)cc1S(=O)(=O)Nc1ccc(F)c(-c2ccc3c(-c4ncc[nH]4)n[nH]c3c2F)c1F` [Example 2CM, 5-chloro-N-(2,4-difluoro-3-(7-fluoro-3-(1H-imidazol-2-yl)-1H-indazol-6-yl)phenyl)-2-methylpyridine-3-sulfonamide] displayed an IC50 of under 500 nM. The compound `O=S(=O)(Nc1ccc(F)c(-c2ccc3c(-c4ncc[nH]4)n[nH]c3c2F)c1F)c1ccccc1Cl` [Example 2BP, 2-chloro-N-(2,4-difluoro-3-(7-fluoro-3-(1H-imidazol-2-yl)-1H-indazol-6-yl)phenyl)-benzenesulfonamide] came in with an IC50 of under 500 nM.

The same assay, now with this note: Table 9.
As for `COc1ncc(CO)cc1S(=O)(=O)Nc1ccc(F)c(-c2ccc3c(C(=O)NCCCN(C)C)n[nH]c3c2F)c1F` [Example 3DB, 6-(2,6-difluoro-3-((5-(hydroxymethyl)-2-meth-oxypyridine)-3-sulfonamido)-phenyl)-N-(3-(dimethyl-amino)propyl)-7-fluoro-1H-indazole-3-carboxamide], the concentration for half-maximal inhibition (IC50) is over 10000 nM. In the case of `COc1ncc(Cl)cc1S(=O)(=O)Nc1cccc(-c2cc3[nH]nc(C(N)=O)c3cn2)c1F` [Example 3BD, 6-(3-((5-chloro-2-methoxy-pyridine)-3-sulfonamido)-2-fluorophenyl)-1H-pyrazolo-[4,3-c]pyridine-3-carboxamide], the IC50 is under 500 nM.

In the case of `O=S(=O)(Nc1ccc(F)c(-c2ccc3c(-c4ncc[nH]4)n[nH]c3c2F)c1F)c1cc(F)cc(CO)c1Cl` [Example 3CH, 2-chloro-N-(2,4-difluoro-3-(7-fluoro-3-(1H-imidazol-2-yl)-1H-indazol-6-yl)phenyl)-5-fluoro-3-(hydroxymethyl)-benzenesulfonamide], the IC50 is under 500 nM.

`Cc1ncc(F)cc1S(=O)(=O)Nc1cc(F)cc(-c2ccc3c(-c4ncc[nH]4)n[nH]c3c2F)c1F` [Example 27, N-(2,5-Difluoro-3-(7-fluoro-3-(1H-imidazol-2-yl)-1H-indazol-6-yl)phenyl)-5-fluoro-2-methylpyridine-3-sulfonamide]: the IC50 was under 500 nM. The same measure, in the same setting: as for `COc1ncc(F)cc1S(=O)(=O)Nc1ccc(F)c(-c2ccc3c(C(=O)N[C@@H]4CCN(C)C4)n[nH]c3c2F)c1F` [Example 3AB, 6-(3-((5-fluoro-2-methoxy-pyridine)-3-sulfonamido)-2,6-difluorophenyl)-7-fluoro-N-((R)-1-methylpyrrolidin-3-yl)-1H-indazole-3-carboxamide], the figure is under 500 nM; as for `COc1ncc(F)cc1S(=O)(=O)Nc1ccc(F)c(-c2ccc3c(C(=O)NC4CCNCC4)n[nH]c3c2F)c1F` [Example 3AU, 6-(2,6-difluoro-3-((5-fluoro-2-methoxypyridine)-3-sulfonamido)phenyl)-7-fluoro-N-(piperidin-4-yl)-1H-indazole-3-carboxamide], 500 to 2500 nM. In the case of `COc1ncc(Cl)cc1S(=O)(=O)Nc1cccc(-c2cc3[nH]nc(C(=O)NCCCN(C)C)c3cn2)c1F` [Example 35, 6-[3-[(5-chloro-2-methoxy-3-pyridyl)sulfonylamino]-2-fluoro-phenyl]-N-[3-(dimethylamino)propyl]-1H-pyrazolo[4,3-c]pyridine-3-carboxamide], the IC50 is under 500 nM. Regarding `Cc1ncc(F)cc1S(=O)(=O)Nc1ccc(F)c(-c2ccc3c(C(=O)Nc4cnn(C)c4)n[nH]c3c2F)c1F` [Example 3DR, 6-(2,6-difluoro-3-((5-fluoro-2-methylpyridine)-3-sulfon-amido)phenyl)-7-fluoro-N-(1-methyl-1H-pyrazol-4-yl)-1H-indazole-3-carboxamide], the half-maximal inhibitory concentration (IC50) is under 500 nM. In turn, `COc1ncc(F)cc1S(=O)(=O)Nc1ccc(F)c(-c2ccc3c(C(=O)NCCC(N)=O)n[nH]c3c2F)c1F` [Example 3AL, N-(3-amino-3-oxopropyl)-6-(2,6-difluoro-3-((5-fluoro-2-methoxypyridine)-3-sulfonamido)phenyl)-7-fluoro-1H-indazole-3-carboxamide] yielded an IC50 of under 500 nM. For the compound `NC(=O)c1n[nH]c2c(F)c(-c3c(F)ccc(NS(=O)(=O)c4cc(F)cc(CO)c4Cl)c3F)ccc12` [Example 4AB], the IC50 is under 500 nM. Compound `Cc1ncc(F)cc1S(=O)(=O)Nc1ccc(F)c(-c2ccc3c(C(=O)NCCCN(C)C)n[nH]c3c2F)c1F` [Example 3CI, 6-(2,6-difluoro-3-((5-fluoro-2-methylpyridine)-3-sulfonamido)phenyl)-N-(3-(dimethylamino)propyl)-7-fluoro-1H-indazole-3-carboxamide] displayed an IC50 of 500 to 2500 nM. On the same count and under the same terms, the value for `Cc1ncc(F)cc1S(=O)(=O)Nc1cc(C#N)cc(-c2ccc3c(-c4ncc[nH]4)n[nH]c3c2F)c1F` [Example 3CC, N-(5-cyano-2-fluoro-3-(7-fluoro-3-(1H-imidazol-2-yl)-1H-indazol-6-yl)phenyl)-5-fluoro-2-methylpyridine-3-sulfonamide] was over 10000 nM.

The compound `COc1ncc(Cl)cc1S(=O)(=O)Nc1ccc(F)c(-c2ccc3c(C(=O)Nc4c[nH]nc4C)n[nH]c3c2F)c1F` [Example 3CS, 6-(3-((5-chloro-2-methoxy-pyridine)-3-sulfonamido)-2,6-difluorophenyl)-7-fluoro-N-(3-methyl-1H-pyrazol-4-yl)-1H-indazole-3-carboxamide] showed an IC50 of under 500 nM. In the case of `Cc1ncc(F)cc1S(=O)(=O)Nc1ccc(F)c(-c2ccc3c(C(=O)Nc4cn[nH]c4)n[nH]c3c2F)c1F` [Example 3DS, 6-(2,6-difluoro-3-((5-fluoro-2-methylpyridine)-3-sulfonamido)phenyl)-7-fluoro-N-(1H-pyrazol-4-yl)-1H-indazole-3-carboxamide], the IC50 was under 500 nM. In turn, `Cc1ccc(S(=O)(=O)Nc2ccc(F)c(-c3ccc4c(C(=O)Nc5cnn(C)c5)n[nH]c4c3F)c2F)c(C)n1` [Example 3DH, 6-(3-((2,6-dimethylpyridine)-3-sulfonamido)-2,6-difluoro-phenyl)-7-fluoro-N-(1-methyl-1H-pyrazol-4-yl)-1H-indazole-3-carboxamide] returned a half-maximal inhibitory concentration (IC50) of under 500 nM.

`COc1ncc(Cl)cc1S(=O)(=O)Nc1ccc(F)c(-c2ccc3c(C(=O)NC[C@H]4CCCN4C)n[nH]c3c2F)c1F` [Example 3D, 6-(3-((5-chloro-2-methoxy-pyridine)-3-sulfonamido)-2,6-difluorophenyl)-7-fluoro-N-(((R)-1-methylpyrrolidin-2-yl)methyl)-1H-indazole-3-carboxamide] showed an IC50 of under 500 nM. Still for that read-out and setting: the value for `COc1ncc(F)cc1S(=O)(=O)Nc1ccc(F)c(-c2ccc3c(C(=O)NCCCNC(C)=O)n[nH]c3c2F)c1F` [Example 3AV, N-(3-acetamidopropyl)-6-(2,6-difluoro-3-((5-fluoro-2-methoxypyridine)-3-sulfon-amido)phenyl)-7-fluoro-1H-indazole-3-carboxamide] was under 500 nM; that for `Cc1ncc(F)cc1S(=O)(=O)Nc1ccc(F)c(-c2ccc3c(C(N)=O)n[nH]c3c2F)c1F` [Example 3BA, 6-(2,6-difluoro-3-((5-fluoro-2-methylpyridine)-3-sulfon-amido)phenyl)-7-fluoro-1H-indazole-3-carboxamide] was under 500 nM.
